Test results: article PMC12348585, “Semi-Synthesis, Anti-Leukemia Activity, and Docking Study of Derivatives from 3α,24-Dihydroxylup-20(29)-en-28-Oic Acid” (Molecules, 2025)
Where two headings read alike, the source gives them in different places. Each block holds one molecule with its values, some of them ahead of it.

How the values were obtained:
CCRF-CEM cell line = experiment: Apoptosis assay (annexin V-FITC/DAPI flow cytometry), CCRF-CEM; assay type: cell-based
Description: (§1) Since compound T1c was the only derivative that decreased the cell viability of leukemic cells (IC50 ≤ 20 µΜ), without affecting viability in normal MNC cells, its mode of action to exert cytotoxic effects was evaluated by flow cytometry techniques, determining the apoptotic effect at 48 h, using ½ IC50 and IC50 concentrations obtained in the viability assay in the different leukemia cell lines. Dasatinib at different concentrations was included as a positive control. Cell death was quantified by dual staining with annexin V-FITC and DAPI. Annexin V binds to externalized phosphatidylserine residues during early and late apoptosis, whereas DAPI penetrates membrane-compromised cells, distinguishing between late apoptotic and necrotic cells. The total percentage of apoptotic cells was calculated as the sum of early and late apoptotic populations. The results were normalized to 100% with respect to the negative control.
(§2) Apoptosis induction was evaluated by flow cytometry. Cells (1 × 10^5 cells/well) were cultured in 96-well plates and exposed to the compounds at two concentrations (½ and 1 × IC50). After 48 h of treatment, the cells were washed with phosphate-buffered saline (PBS) and stained with annexin V-FITC (BD Bioscience) for 15 min in the dark. Following a second PBS wash, the cells were stained with DAPI (500 ng/mL) for 15 min in darkness. The stained samples were subsequently analyzed on a FACSVerse cytometer (BD Bioscience, San Jose, CA, USA).

CCRF-CEM = experiment: Cell viability assay (DAPI, flow cytometry), CCRF-CEM; assay type: cell-based; details: for IC50: Homo sapiens, CCRF-CEM, 48 h, mean ± SEM, N/A: not active; for SI: selectivity index, CCRF-CEM: ratio of IC50 in the MNC line over IC50 in the leukemia cell line
Description: (§3) Cell lines were cultured in RPMI 1640 medium (Roswell Park Memorial Institute medium) supplemented with 10% fetal bovine serum (FBS) and 1% penicillin–streptomycin. Cultures were maintained at 37 °C in a humidified incubator with 5% CO2. All biological evaluations were performed using cell between passages 3 and 4. All compounds were dissolved in dimethyl sulfoxide (DMSO) at a concentration of 20 mg/mL. In all assays, culture medium containing 0.1% DMSO was used as the negative control, while dasatinib was included as the positive control. Normal mononuclear cells (MNCs) were included as the normal cell control. All experiments were performed in triplicate. Leukemic cell lines and normal mononuclear cells (MNCs) were used to evaluate the cytotoxicity of the compounds. Leukemic cells (1 × 10^5 cells/well) were cultured in 96-well plates and treated with increasing concentrations of compounds (0.02, 0.2, 2.0, and 20 µM) for 48 h. After incubation, both leukemic cells and MNCs were collected, washed with phosphate-buffered saline (PBS), and stained with DAPI (500 ng/mL) for 15 min in darkness, following the manufacturer’s instructions. Fluorescence was analyzed using a FACSVerse flow cytometer (BD Bioscience, San Jose, CA, USA). Flow cytometry data were analyzed using FlowJo^TM software (version 10.9). […] All experiments were performed in triplicate, and results were expressed as means ± standard errors of the means (SEMs). Statical analysis was performed using one-way analysis of variance (ANOVA), followed by Dunnett’s post hoc test to compare treated groups against the control.

THP-1 = experiment: Cell viability assay (DAPI, flow cytometry), THP-1; assay type: cell-based; details: for IC50: Homo sapiens, THP-1, 48 h, mean ± SEM, N/A: not active
Description: as §3

REH = experiment: Cell viability assay (DAPI, flow cytometry), REH; assay type: cell-based; details: for IC50: Homo sapiens, REH, 48 h, mean ± SEM, N/A: not active; for SI: selectivity index, REH: ratio of IC50 in the MNC line over IC50 in the leukemia cell line
Description: as §3

[1] = test system: leukemia cell lines (CCRF-CEM, REH, JURKAT, MOLT-4, THP-1); experiment: Cell viability assay, all leukemia cell lines tested (summary statements); assay type: cell-based
Description: as §3

JURKAT = experiment: Cell viability assay (DAPI, flow cytometry), JURKAT; assay type: cell-based; details: for IC50: Homo sapiens, Jurkat, 48 h, mean ± SEM, N/A: not active; for SI: selectivity index, JURKAT: ratio of IC50 in the MNC line over IC50 in the leukemia cell line
Description: as §3

[2] = Cell viability assay in normal mononuclear cells; assay type: cell-based, human; details: human
Description: (§4) All compounds were dissolved in dimethyl sulfoxide (DMSO) at a concentration of 20 mg/mL. In all assays, culture medium containing 0.1% DMSO was used as the negative control, while dasatinib was included as the positive control. Normal mononuclear cells (MNCs) were included as the normal cell control. All experiments were performed in triplicate. Normal mononuclear cells (MNCs) were isolated from peripheral blood mononuclear cells obtained from healthy human donors. Cell collection was conducted in accordance with institutional guidelines, including written informed consent from each participant. All procedures were approved by Ethics and Scientific Committee of the Mexican Institute of Social Security (IMSS, ethical approval number: CNIC R-2021-785-025). The MNCs were purified using FicollPaque Plus (Pharmacia Biotech, Uppsala, Sweden) by centrifugation at 400× g for 30 min at room temperature, following the manufacturer’s protocol. The resulting cells were resuspended in RPMI-1640 medium supplemented with 10% fetal bovine serum (FBS) and counted using a hemocytometer after trypan blue staining, confirming a viability of 95% [56]. […] After incubation, both leukemic cells and MNCs were collected, washed with phosphate-buffered saline (PBS), and stained with DAPI (500 ng/mL) for 15 min in darkness, following the manufacturer’s instructions. Fluorescence was analyzed using a FACSVerse flow cytometer (BD Bioscience, San Jose, CA, USA). Flow cytometry data were analyzed using FlowJo^TM software (version 10.9). […] All experiments were performed in triplicate, and results were expressed as means ± standard errors of the means (SEMs). Statical analysis was performed using one-way analysis of variance (ANOVA), followed by Dunnett’s post hoc test to compare treated groups against the control.

JURKAT cell line = experiment: Apoptosis assay (annexin V-FITC/DAPI flow cytometry), JURKAT; assay type: cell-based
Description: as §1, §2

THP-1 cell line = experiment: Apoptosis assay (annexin V-FITC/DAPI flow cytometry), THP-1; assay type: cell-based
Description: as §1, §2

MOLT-4 cell line = experiment: Apoptosis assay (annexin V-FITC/DAPI flow cytometry), MOLT-4; assay type: cell-based
Description: as §1, §2

MOLT-4 = experiment: Cell viability assay (DAPI, flow cytometry), MOLT-4; assay type: cell-based; details: Homo sapiens, MOLT-4; 48 h; mean ± SEM; N/A: not active
Description: as §3

[3] = test system: peripheral blood mononuclear cells (MNCs); experiment: Cell viability assay in normal mononuclear cells; assay type: cell-based, human
Description: as §4

K562 cells = test system: K562 cells; design: method as in PMID 36080390; details: cited from earlier work
HL-60 cells = test system: HL-60 cells; design: method as in PMID 36080390; details: cited from earlier work
[4] = 48 h, summary over CCRF-CEM, REH, JURKAT, MOLT-4, THP-1
[5] = positive control (dasatinib), 48 h
[6] = THP-1, positive control (dasatinib), 48 h
[7] = MOLT-4, positive control (dasatinib), 48 h

Structure (SMILES): C=C(C=O)C1CCC2(C(=O)O)CCC3(C)C(CCC4C5(C)CCC(O)C(C)(CO)C5CCC43C)C12 (stereo not drawn) [Compound T1c, 3α,24-dihydroxy-30-oxolup-20(29)-en-28-oic acid]
apoptosis rate (early + late) (CCRF-CEM cell line; IC50, 48 h): 97.13 ± 0.36% | early apoptotic cells (CCRF-CEM cell line; IC50, 48 h): 16.92% | late apoptotic cells (CCRF-CEM cell line; IC50, 48 h): 80.21% | apoptosis rate (early + late) (CCRF-CEM cell line; ½ IC50, 48 h): 62.40 ± 1.57% | early apoptotic cells (CCRF-CEM cell line; ½ IC50, 48 h): 16.98% | late apoptotic cells (CCRF-CEM cell line; ½ IC50, 48 h): 45.42% | IC50 (CCRF-CEM): 17.8 ± 1 µM | SI: selectivity index, CCRF-CEM (CCRF-CEM): 75.02 | IC50 (THP-1): 12.9 ± 0.1 µM | SI: selectivity index, THP-1 (THP-1; ratio of IC50 in the MNC line over IC50 in the leukemia cell line): 103.46 | IC50 (REH): > 20 µM | SI: selectivity index, REH (REH): 53.55 | IC50 ([1]; 48 h, summary over CCRF-CEM, REH, JURKAT, MOLT-4, THP-1, read-out: IC50 across all leukemia cell lines tested): 12.9 to 24.9 µM | SI (selectivity against leukemia cell lines vs MNCs) ([1]; summary statement): > 10 | IC50 (JURKAT): 18.7 ± 1.4 µM | SI: selectivity index, JURKAT (JURKAT): 71.46 | IC50 at 48 h [2]: > 200 µM | apoptosis rate (early + late) (JURKAT cell line; IC50, 48 h): 96.37 ± 0.49% | early apoptotic cells (JURKAT cell line; IC50, 48 h): 47.61% | late apoptotic cells (JURKAT cell line; IC50, 48 h): 48.72% | apoptosis rate (early + late) (JURKAT cell line; ½ IC50, 48 h): 67.14 ± 2.18% | early apoptotic cells (JURKAT cell line; ½ IC50, 48 h): 30.60% | late apoptotic cells (JURKAT cell line; ½ IC50, 48 h): 36.55% | apoptosis rate (early + late) (THP-1 cell line; THP-1, IC50, 48 h): 52.23 ± 1.69% | early apoptotic cells (THP-1 cell line; THP-1, IC50, 48 h): 22.84% | late apoptotic cells (THP-1 cell line; THP-1, IC50, 48 h): 29.39% | apoptosis rate (early + late) (THP-1 cell line; THP-1, ½ IC50, 48 h): 29.40 ± 2.66% | early apoptotic cells (THP-1 cell line; THP-1, ½ IC50, 48 h): 14.50% | late apoptotic cells (THP-1 cell line; THP-1, ½ IC50, 48 h): 14.90% | apoptosis rate (early + late) (MOLT-4 cell line; MOLT-4, IC50, 48 h): 94.58 ± 0.45% | early apoptotic cells (MOLT-4 cell line; MOLT-4, IC50, 48 h): 30.12% | late apoptotic cells (MOLT-4 cell line; MOLT-4, IC50, 48 h): 64.46% | apoptosis rate (early + late) (MOLT-4 cell line; MOLT-4, ½ IC50, 48 h): 69.91 ± 2.17% | early apoptotic cells (MOLT-4 cell line; MOLT-4, ½ IC50, 48 h): 41.15% | late apoptotic cells (MOLT-4 cell line; MOLT-4, ½ IC50, 48 h): 28.76% | IC50 (MOLT-4): 13.9 ± 0.7 µM

Structure (SMILES): C=C(CO)C1CCC2(C(=O)O)CCC3(C)C(CCC4C5(C)CCC(O)C(C)(CO)C5CCC43C)C12 (stereo not drawn) [Compound T1d, 3α,24,30-trihydroxylup-20(29)-en-28-oic acid]
IC50 across all leukemia cell lines tested [1, 4]: no activity | IC50 MNCs [3]: no activity

Structure (SMILES): C=C(C)C1CCC2(C(=O)O)CCC3(C)C(CCC4C5(C)CCC(OC(C)=O)C(C)(CO)C5CCC43C)C12 (stereo not drawn) [Compound T1e, 3α-acetyl-24-hydroxylup-20(29)-en-28-oic acid]
IC50 across all leukemia cell lines tested [1, 4]: no activity | IC50 MNCs [3]: no activity

Structure (SMILES): C=C(C=O)[C@@H]1CC[C@]2(C(=O)O)CC[C@]3(C)C(CCC4[C@@]5(C)CC[C@@H](O)[C@@](C)(CO)C5CC[C@]43C)C12 (stereo partly drawn) [Compound T2, 3α,23-dihydroxy-30-oxolup-20(29)-en-28-oic acid]
K562 cell viability (K562 cells; at 102 µM): 88.6 ± 0.40% | K562 cell viability (K562 cells; at 204 µM): 24.3 ± 1.95% | IC50 (CCRF-CEM): > 20 µM | SI: selectivity index, CCRF-CEM (CCRF-CEM): 19.48 | IC50 (REH): > 20 µM | SI: selectivity index, REH (REH): 11.40 | IC50 (JURKAT): > 20 µM | SI: selectivity index, JURKAT (JURKAT): 8.56 | IC50 at 48 h [2]: > 200 µM | HL-60 cell viability (HL-60 cells; at 102 µM): 88.35 ± 3.85% | HL-60 cell viability (HL-60 cells; at 204 µM): 85.15 ± 3.05%

IC50 (CCRF-CEM): 10.8 ± 1.2 µM | IC50 (THP-1): 4.66 ± 0.3 µM | IC50 (JURKAT): 5.26 ± 0.5 µM | IC50 (MOLT-4): 2.63 ± 0.1 µM
Structure (SMILES): Cc1nc(Nc2ncc(C(=O)Nc3c(C)cccc3Cl)s2)cc(N2CCN(CCO)CC2)n1 [Dasatinib, dasatinib, reference compound]
IC50 (REH): 5.43 ± 0.3 µM | apoptosis rate (early + late) (JURKAT cell line; [5]): 97.19 ± 0.11% | early apoptotic cells (JURKAT cell line; [5]): 0.59% | late apoptotic cells (JURKAT cell line; [5]): 96.60% | apoptosis rate (early + late) (THP-1 cell line; [6]): 32.14 ± 3.15% | early apoptotic cells (THP-1 cell line; [6]): 7.21% | late apoptotic cells (THP-1 cell line; [6]): 24.93% | early apoptotic cells (MOLT-4 cell line; [7]): 1.40% | late apoptotic cells (MOLT-4 cell line; [7]): 94.74% | apoptosis rate (early + late) (MOLT-4 cell line; MOLT-4, positive control (dasatinib), 48 h, normalized to negative control): 96.13 ± 0.71%
